Measured values from patent US9549964B2, “Diagnosis, prognosis, and treatment of kidney disease” (Beth Israel Deaconess Medical Center, Inc., priority 2011, dated 2017).
Residues, ends and D or L forms follow the SMILES beside them.

Legend:
human serum albumin = experiment: Prevention of albumin carbamylation by cyanate in the presence of competing nucleophiles (% C-Alb by LC-MS); conditions: 10 mM scavenger, 0.25 mM cyanate, 37° C., 14 hours; for % CarbAlb Average +/− SD / % Decrease compared to no inhibitor: human serum albumin 4 mg/ml
Experimental: The pH of each was adjusted to pH 7.4 using HCl. HSA (4 mg/mL) was added to each amino acid solution, and then mixed 1:1 with 0.5 mM potassium cyanate in 100 mM potassium phosphate pH 7.4 (0.25 mM cyanate final concentration). […] Desalted albumin was then denatured and digested for analysis as described above.
To this, we added 0.25 mM cyanate, incubated at 37° C. for 14 hours, and analyzed for % C-Alb thereafter (Table 11).

[1] = Cyanate titration of an equimolar amino acid mixture (susceptibility of amino acids to carbamylation); conditions: increasing cyanate, physiological buffer pH 7.4, overnight 37° C.
Experimental: Carbamylation titration experiments were performed using an amino acid standard mix from Sigma Aldrich (Cat. No. AAS18) supplemented with tryptophan, cysteine, and glutamine; all amino acids were equimolar (2.5 mM stock). The 0.1 N HCl in the standard solution was neutralized with ammonium hydroxide and removed by lyophilization, and the dried amino acids were diluted to final concentration of 50 μM (each) in 100 mM potassium phosphate pH 7.4. […] Carbamylation was halted with addition of 1 M HCl, and excess cyanate and HCl were removed by vacuum lyophilization at room temperature. Isotopic standards were then mixed with the reactions, the tube were re-lyophilized, and amino acid mixtures were then S-alkylated with iodoacetamide, butylated with butanolic HCl, and analyzed using methods similar to those described for serum amino acids.
To differentiate the isocyanate-scavenging ability of individual amino acids, we added increasing concentrations of cyanate to an equimolar mixture of all twenty amino acids in a physiological buffer. As expected, increasing concentration of cyanate produced linear increases of all carbamylated amino acids and depletion of their unmodified forms (FIGS. 9A and 9B). From the titration curves, we calculated the cyanate concentration at which 10% unmodified amino acid forms were depleted.

Row | % Decrease compared to no inhibitor (human serum albumin) [%] | Compound | % CarbAlb Average +/− SD (human serum albumin) [%] | Susceptibility to carbamylation / cyanate binding (in words) [1] | Prevention of C-Alb formation / cyanate scavenging (in words) (human serum albumin)
1 | – | C[C@H](N)C(=O)O [Alanine] | 32 ± 1.7 | – | –
2 | – | N=C(N)NCCC[C@H](N)C(=O)O [Arginine] | 27 ± 1.6 | prone to carbamylation at low cyanate concentrations | –
3 | – | N[C@@H](CS)C(=O)O [Cysteine] | 23 ± 1.9 | very high cyanate binding avidity by the free thiol group | prevented C-Alb formation
4 | 3 | N[C@@H](CCC(=O)O)C(=O)O [Glutamate] | 38 ± 1.2 | – | –
5 | – | NC(=O)CC[C@H](N)C(=O)O [Glutamine] | 32 ± 2.9 | – | –
6 | – | N[C@@H](CCC(=O)N[C@@H](CS)C(=O)NCC(=O)O)C(=O)O [Glutathione] | 29 ± 1.4 | – | –
7 | – | NCC(=O)O [Glycine] | 31 ± 1.8 | – | –
8 | – | NCC(=O)NCC(=O)O [Glycylglycine] (H-Gly-Gly-OH) | – | more strongly carbamylated than glycine or other amino acids | –
9 | – | N[C@@H](Cc1c[nH]cn1)C(=O)O [Histidine] | 26 ± 1.0 | prone to carbamylation at low cyanate concentrations | –
10 | – | CC(C)C[C@H](N)C(=O)O [Leucine] | 37 ± 2.2 | – | –
11 | – | O=C(O)[C@@H]1CCCN1 [Proline] | 34 ± 1.6 | – | –
12 | – | NCCS(=O)(=O)O [Taurine] | 22 ± 1.7 | – | effectively scavenged cyanate
13 | – | N[C@@H](Cc1c[nH]c2ccccc12)C(=O)O [Tryptophan] | 32 ± 2.7 | – | –
14 | 16 | CC(C)[C@H](N)C(=O)O [Valine] | 33 ± 1.1 | – | –

Row | Compound | % Decrease compared to no inhibitor (human serum albumin) [%] | % CarbAlb Average +/− SD (human serum albumin) [%] | Susceptibility to carbamylation / cyanate binding (in words) [1] | Prevention of C-Alb formation / cyanate scavenging (in words) (human serum albumin)
15 | NCCCC[C@H](N)C(=O)O [Lysine] | 21 | 31 ± 0.9 | did not avidly bind cyanate | –
